Test results: article PMC11992225, “Antibacterial compounds against non-growing and intracellular bacteria” (npj Antimicrobials and Resistance, 2025)
Converted amounts (≈) assume the structure as drawn. Read-outs that look alike come from different tables or passages of the source.

Legend:
S. flexneri 5a M90T = assay: MIC in tryptic soy broth, S. flexneri; assay type: cell-based, Shigella flexneri; conditions: for MIC: Shigella flexneri, 5AM90T, read-out: MIC (μM) TSB
In short: (§1)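 Broth microdilution was used throughout. UPEC, P. aeruginosa and S. aureus were tested in CA-MHB buffered with 40 mM HEPES (pH 7.4); UPEC was additionally tested in LPM with 30 mM MES (pH 5.5). S. flexneri was grown in TSB. All determinations were run in triplicate.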

E. coli CFT073 (UPEC) = assay: MIC, standard microdilution assay, growing UPEC; assay type: cell-based, Escherichia coli; conditions: for MIC (μM) CA-MHB +PAβN: CA-MHB with 10 μg/ml efflux pump inhibitor PaβN
In short: as §1

S. aureus DSM2569 = assay: MIC, standard microdilution assay, growing S. aureus; assay type: cell-based, Staphylococcus aureus
In short: as §1

[1] = tested on: intracellular S. flexneri 5a M90T in TC7 cells; assay: microbe, parasite or virus in culture; assay type: cell-based, Shigella flexneri
From the text: Nonproliferating bacterial pathogens frequently inhabit intracellular environments, but establishing relevant infection models for high-throughput testing is challenging. Therefore, we firstly tested ability of the hit compounds to cross the eukaryotic cytoplasmic membrane barrier and inhibit growth of S. flexneri within the cytoplasm of the TC7 human colon adenocarcinoma cell line[59]. To this end, we developed a new, fluorescence-based method that enables real-time monitoring of growth of intracellular Shigella. We used S. flexneri 5a M90T strain producing the AfaE adhesin that enhances bacterial adhesion to epithelial cells and allows synchronization of invasion. The strain was further modified to constitutively express super-folder GFP (sfGFP), which enables monitoring bacterial growth by fluorescence measurement. The epithelial cells were grown to confluence and infected with bacteria at an MOI (multiplicity of infection) of 50. […] Following bacterial adhesion and invasion, the cells were incubated with varying concentrations of the hit compounds and intracellular bacterial growth was tracked by measuring green fluorescence.
The cells were split using trypsin, seeded in 96-well plates for infection, and grown to confluence, corresponding to approximately 40,000 cells per well.
A single colony of S. flexneri was inoculated into TSB supplemented with 50 μg/ml spectinomycin and incubated overnight at 37°C with agitation. The overnight culture was diluted 1:200 in fresh TSB, and the bacteria were grown at 37 °C until the OD600 reached 0.3–0.4, corresponding to approximately 2 × 10^7 CFU/ml. Bacteria were pelleted by centrifugation, washed twice with sterile PBS, and resuspended in infection solution (serum-free DMEM supplemented with 20 mM HEPES, pH 7.4). Just prior to infection, the medium was withdrawn, and the cells were washed twice with sterile PBS. The bacterial inoculum (MOI 50, 2 × 10^7 CFU/ml) was added to all wells except the no-infection control. The plates were incubated at room temperature for 15 min to allow bacterial adhesion, followed by a 1 h incubation at 37 °C with 5% CO2 to facilitate bacterial invasion.
Twofold serial dilutions of the drugs were prepared in infection solution containing 50 μg/ml gentamicin in a 96-well plate. After the invasion period, the bacterial inoculum was removed, and the serial dilutions of the drugs were added to the wells, except for the no-drug control. […] […] The experiments were performed in triplicates on separate days.
Statistical significance of the drug effects was assessed using a one-way ANOVA followed by Dunnett’s test, comparing each treatment to the drug-free control. Statistical significance of the differences in chemical characteristics between the hit compounds and the Prestwick library was assessed using a Mann–Whitney test. Statistical significance was set at P ≤ 0.05. A five-parameter logistic equation was used for asymmetric sigmoidal curve fitting and for EC50 and IC50 determination. The Venn diagram in Fig. 1F was prepared using BioVenn web application. Characteristics of the chemical and physical properties of Prestwick library compounds were obtained from Supplementary Table S1 from reference. Characteristics of the hit compounds not included in the Prestwick library were retrieved from the PubChem database.

[2] = Escherichia coli, pH 7.4, read-out: MIC (μM) 1:4 CA-MHB
[3] = Escherichia coli, pH 7.4, read-out: MIC (μM) CA-MHB
[4] = Staphylococcus aureus, DSM2569, pH 7.4, read-out: MIC (μM) CA-MHB
[5] = TC7 cells infected with GFP-expressing S. flexneri, 14 h treatment

| SMILES | MIC (S. flexneri 5a M90T) [µM] | MIC (μM) CA-MHB +PAβN (E. coli CFT073 (UPEC); E. coli, pH 7.4) [µM] | MIC (E. coli CFT073 (UPEC); Escherichia coli, pH 5.5) [µM] | MIC (E. coli CFT073 (UPEC); [2]) [µM] | MIC (E. coli CFT073 (UPEC); [3]) [µM] | MIC (S. aureus DSM2569; [4]) [µM] | Fluorescence intensity (RFU), Mean, 0.25 x MIC [1, 5] [RFU] | Fluorescence intensity (RFU), Mean, 0.5 x MIC [1, 5] [RFU] | Fluorescence intensity (RFU), Mean, 2 x MIC [1, 5] [RFU] | Fluorescence intensity (RFU), Mean, 4 x MIC [1, 5] [RFU] | Fluorescence intensity (RFU), Mean, 8 x MIC [1, 5] [RFU] | Fluorescence intensity (RFU), Mean, MIC [1, 5] [RFU] | also measured |
| --- | --- | --- | --- | --- | --- | --- | --- | --- | --- | --- | --- | --- | --- |
| CCCCC(CC)CNC(=N)NC(=N)NCCCCCCNC(=N)NC(=N)NCC(CC)CCCC (stereo not shown) [Alexidine] | 1 (≈ 0.509 µg/mL) |  |  |  |  |  |  |  |  |  |  |  | MIC (E. coli CFT073 (UPEC); Escherichia coli, E. coli, pH 7.4, CA-MHB, read-out: MIC (μM) CA-MHB): 2 µM (≈ 1.02 µg/mL); MIC (S. aureus DSM2569; Staphylococcus aureus, DSM2569, S. aureus, CA-MHB pH 7.4, read-out: MIC (μM) CA-MHB): 1 µM (≈ 0.509 µg/mL) |
| CS[C@H]1SC[C@H]2C(=O)N(C)[C@@H](C(C)C)C(=O)OC[C@@H](NC(=O)c3cnc4ccccc4n3)C(=O)N[C@@H](C)C(=O)N(C)[C@@H]1C(=O)N(C)[C@@H](C(C)C)C(=O)OC[C@@H](NC(=O)c1cnc3ccccc3n1)C(=O)N[C@@H](C)C(=O)N2C [Echinomycin] | 4 (≈ 4.41 µg/mL) | 40 (≈ 44.1 µg/mL) | 4 (≈ 4.41 µg/mL) | 40 (≈ 44.1 µg/mL) | 20 (≈ 22 µg/mL) | 2 (≈ 2.2 µg/mL) |  |  |  |  |  |  |  |
| Cn1c(COP(=O)(NCCBr)NCCBr)cnc1[N+](=O)[O-] [Evofosfamide] | 32 (≈ 14.4 µg/mL) | >160 | 160 (≈ 71.8 µg/mL) | > 160 | > 160 | 160 (≈ 71.8 µg/mL) | 9046.58 | 8823.33 | 7151.78 | 5305.28 | 3462.11 | 8378.86 | MIC:IC50 ratio ([1]; S. flexneri MIC in TSB versus intracellular IC50): below 0.5; IC50 ([1]; Shigella flexneri, TC7, 14 h): 102 µM; MIC (μM) CA-MHB +PAβN (S. aureus DSM2569; S. aureus, CA-MHB with 10 μg/ml PaβN): 80 µM (≈ 35.9 µg/mL); MIC (S. aureus DSM2569; Staphylococcus aureus, DSM2569, pH 7.4, read-out: MIC (μM) 1:4 CA-MHB): 80 µM (≈ 35.9 µg/mL) |
| CO[C@H]1/C=C/O[C@@]2(C)Oc3c(C)c(O)c4c(O)c(c(/C=N/N=C/N5CCCCC5)c(O)c4c3C2=O)NC(=O)/C(C)=C\C=C\[C@H](C)[C@H](O)[C@@H](C)[C@@H](O)[C@@H](C)[C@H](OC(C)=O)[C@@H]1C [FCE-22250] |  | 4 (≈ 3.34 µg/mL) |  |  |  |  | 2896.5 | 1857.94 | 1320.58 | 1217.94 | 1111.33 | 1487.86 | MIC (μM) TSB (S. flexneri 5a M90T; S. flexneri, extracellular bacteria in TSB): 16 µM (≈ 13.4 µg/mL); MIC (E. coli CFT073 (UPEC); E. coli, LPM pH 5.5, read-out: MIC): 2 µM (≈ 1.67 µg/mL); MIC (E. coli CFT073 (UPEC); E. coli, pH 7.4, 1:4 diluted CA-MHB, read-out: MIC (μM) 1:4 CA-MHB): 10 µM (≈ 8.35 µg/mL); MIC (E. coli CFT073 (UPEC); E. coli, pH 7.4, CA-MHB, read-out: MIC (μM) CA-MHB): 8 µM (≈ 6.68 µg/mL); Fluorescence intensity (RFU), Mean, 0.0625 x MIC ([1]; TC7 cells infected with GFP-expressing S. flexneri, 14 h treatment, 0.0625 x MIC): 8508.25 RFU; Fluorescence intensity (RFU), Mean, 0.125 x MIC ([1]; TC7 cells infected with GFP-expressing S. flexneri, 14 h treatment, 0.125 x MIC): 9069.58 RFU; Fluorescence intensity (RFU), Mean, 16 x MIC ([1]; TC7 cells infected with GFP-expressing S. flexneri, 14 h treatment, 16 x MIC): 979.361 RFU; MIC (S. aureus DSM2569; S. aureus, CA-MHB pH 7.4, read-out: MIC (μM) CA-MHB): 0.0125 µM (≈ 0.0104 µg/mL) |
